Patent publication US8575091B1, “Amylin analogues and pharmaceutical compositions thereof” (Novo Nordisk A/S, priority 2012, dated 2013)
Like-named read-outs stand apart in the source and are kept apart here. Numbered stars: 1 amine (or outer) side, 2 acyl side, 3 side chain; on linkers, the order of the positions; unused ones are H or OH. Bridge positions count the residues as written; N and C are the ends. Side chains are listed from the residue outwards. Peptide text beside a SMILES is read from it. * marks the point of attachment. C20 diacid = O=C(O)CCCCCCCCCCCCCCCCCCC(=O)*; γGlu = O=C(O)[C@H](CCC(=O)[*:2])N[*:1]

What was measured:
[1] = target: T1, human amylin receptor (amylin 3(a) receptor: human calcitonin receptor + RAMP-3) (Homo sapiens, UniProt O60896+P30988); assay: Assay (II)a functional assay, human amylin receptor (CRE luciferase, BHK cells); assay type: cell-based; conditions: for EC50: read-out: hAmylin-R funct. EC50
T1 construct: expressed in transfected cells
T1 sequence (P30988 25-474): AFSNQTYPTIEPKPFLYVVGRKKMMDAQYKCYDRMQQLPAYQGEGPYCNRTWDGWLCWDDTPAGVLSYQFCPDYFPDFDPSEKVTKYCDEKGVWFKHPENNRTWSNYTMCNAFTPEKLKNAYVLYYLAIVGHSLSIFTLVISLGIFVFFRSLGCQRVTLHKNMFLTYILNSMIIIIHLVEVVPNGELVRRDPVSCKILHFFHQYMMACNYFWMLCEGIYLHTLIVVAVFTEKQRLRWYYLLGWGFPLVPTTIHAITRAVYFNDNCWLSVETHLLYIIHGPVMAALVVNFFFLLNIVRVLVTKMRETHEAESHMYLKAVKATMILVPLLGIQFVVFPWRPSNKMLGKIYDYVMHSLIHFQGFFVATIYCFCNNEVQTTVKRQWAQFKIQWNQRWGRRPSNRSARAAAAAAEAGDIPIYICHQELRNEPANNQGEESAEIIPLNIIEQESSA
T1 sequence (O60896 24-148 partner): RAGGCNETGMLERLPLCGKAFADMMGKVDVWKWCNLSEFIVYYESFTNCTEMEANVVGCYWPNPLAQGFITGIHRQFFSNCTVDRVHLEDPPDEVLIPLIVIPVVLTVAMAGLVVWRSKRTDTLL

human amylin receptor = target: T2, human amylin receptor (Homo sapiens, UniProt O60896+P30988); assay: Assay (V) binding to the human amylin receptor (SPA, 125I-rat amylin); conditions: for IC50: human amylin receptor membranes, SPA, read-out: hAmylin-R bind IC50; for Ratio hCT/hAmylin binding: human binding ratio, included for comparison
T2 construct: expressed in transfected cells
T2 sequence (P30988 25-474): T1 sequence (P30988 25-474)
T2 sequence (O60896 24-148 partner): T1 sequence (O60896 24-148 partner)
Method in brief: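 SPA competition binding on membranes from Amylin 3(a)/CRE-luc cells, 35 ng/μL membranes with 0.05 mg/well beads. Buffer 50 mM Hepes pH 7.4, 1 mM CaCl2, 5 mM MgCl2, 0.1% OA, 0.02% Tween20. IC50 from one-site competition fit as affinity measure.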

[2] = target: T3, human calcitonin receptor (Homo sapiens, UniProt P30988); assay: Assay (II)a functional assay, human calcitonin receptor (CRE luciferase, BHK cells);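 further: luminescence from a CRE-driven luciferase reporter, read by single photon counting after cells were exposed to test samples for 3 h at 37 °C under 5% CO2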; assay type: cell-based; conditions: read-out: hCTR funct. EC50
T3 construct: expressed in transfected cells
T3 sequence (P30988 25-474): T1 sequence (P30988 25-474)

[3] = target: T3, human calcitonin receptor; assay: Assay (VII) binding to the human calcitonin receptor (SPA, 125I-Calcitonin); conditions: read-out: hCTR bind IC50;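 further: cell membranes coupled to SPA beads, competitive displacement read by scintillation counting, IC50 derived from a one-site competition fit as a measure of receptor affinity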
[4] = Table 6, human functional selectivity (hCTR EC50 / hAmylin-R EC50)

Row | IC50 (human amylin receptor) | IC50 [3] | Ratio hCT/hAmylin funct. [1, 4] | Ratio hCT/hAmylin binding (human amylin receptor) | SMILES | also measured
1 | 0.939 nM | 137 nM |  |  | CC[C@H](C)[C@H](NC(=O)[C@H](C)NC(=O)CNC(=O)[C@H](Cc1ccccc1)NC(=O)[C@H](CC(N)=O)NC(=O)[C@@H]1CCCN1C(=O)[C@H](CO)NC(=O)[C@H](CO)NC(=O)[C@H](Cc1c[nH]cn1)NC(=O)[C@H](CCCNC(=N)N)NC(=O)[C@H](CC(C)C)NC(=O)[C@H](Cc1ccccc1)NC(=O)[C@H](CCCNC(=N)N)NC(=O)[C@H](C)NC(=O)[C@H](CC(C)C)NC(=O)[C@H](CCCNC(=N)N)NC(=O)[C@H](CCC(N)=O)NC(=O)[C@@H](NC(=O)[C@H](C)NC(=O)[C@@H]1CSSC[C@H](NC(=O)[C@@H](N)CCCCNC(=O)CC[C@H](NC(=O)CCCCCCCCCCCCCCCCCCC(=O)O)C(=O)O)C(=O)N[C@@H](CC(N)=O)C(=O)N[C@@H]([C@@H](C)O)C(=O)N[C@@H](C)C(=O)N[C@@H]([C@@H](C)O)C(=O)N1)[C@@H](C)O)C(=O)N1CCC[C@H]1C(=O)N[C@@H](CO)C(=O)N[C@@H](CO)C(=O)N[C@H](C(=O)N[C@@H](CC(N)=O)C(=O)N[C@H](C(=O)NCC(=O)N[C@@H](CO)C(=O)N[C@@H](CC(N)=O)C(=O)N[C@H](C(=O)N[C@@H](Cc1ccc(O)cc1)C(N)=O)[C@@H](C)O)C(C)C)[C@@H](C)O [Example 83] | EC50 ([1]; functional assay, human amylin receptor): 0.405 nM; EC50 [2]: 16.8 nM
2 | 0.061 nM | 2.57 nM |  |  | CC[C@H](C)[C@H](NC(=O)[C@H](C)NC(=O)CNC(=O)[C@H](Cc1ccccc1)NC(=O)[C@H](CC(N)=O)NC(=O)[C@@H]1CCCN1C(=O)[C@H](CO)NC(=O)[C@H](CO)NC(=O)[C@H](Cc1c[nH]cn1)NC(=O)[C@H](CCCNC(=N)N)NC(=O)[C@H](CC(C)C)NC(=O)[C@H](Cc1ccccc1)NC(=O)[C@H](Cc1c[nH]cn1)NC(=O)[C@H](C)NC(=O)[C@H](CC(C)C)NC(=O)[C@H](CCCNC(=N)N)NC(=O)[C@H](CCC(N)=O)NC(=O)[C@@H](NC(=O)[C@H](C)NC(=O)[C@@H]1CSSC[C@H](NC(=O)[C@@H](N)CCCCNC(=O)COCCOCCNC(=O)CCCCCCCCCCCCCCCCCCC(=O)O)C(=O)N[C@@H](CC(N)=O)C(=O)N[C@@H]([C@@H](C)O)C(=O)N[C@@H](C)C(=O)N[C@@H]([C@@H](C)O)C(=O)N1)[C@@H](C)O)C(=O)N1CCC[C@H]1C(=O)N[C@@H](CO)C(=O)N[C@@H](CO)C(=O)N[C@H](C(=O)N[C@@H](CC(N)=O)C(=O)N[C@H](C(=O)NCC(=O)N[C@@H](CO)C(=O)N[C@@H](CC(N)=O)C(=O)N[C@H](C(=O)N[C@@H](Cc1ccc(O)cc1)C(N)=O)[C@@H](C)O)C(C)C)[C@@H](C)O [Example 90] | EC50 ([1]; Table 6j, human amylin receptor functional): 0.033 nM
3 | 1.13 nM | 19.5 nM | 6.7 |  | CC(C)C[C@H](NC(=O)[C@H](CCCNC(=N)N)NC(=O)[C@H](CCC(N)=O)NC(=O)[C@@H](NC(=O)[C@H](C)NC(=O)[C@@H]1CSSC[C@H](NC(=O)[C@@H](N)CCCCNC(=O)CC[C@H](NC(=O)CC[C@H](NC(=O)CCCCCCCCCCCCCCCCCCC(=O)O)C(=O)O)C(=O)O)C(=O)N[C@@H](CC(N)=O)C(=O)N[C@@H]([C@@H](C)O)C(=O)N[C@@H](C)C(=O)N[C@@H]([C@@H](C)O)C(=O)N1)[C@@H](C)O)C(=O)N[C@@H](C)C(=O)N[C@@H](CC(=O)O)C(=O)N[C@@H](Cc1ccccc1)C(=O)N[C@@H](CC(C)C)C(=O)N[C@@H](CCCNC(=N)N)C(=O)N[C@@H](Cc1c[nH]cn1)C(=O)N[C@@H](CO)C(=O)N[C@@H](CO)C(=O)N[C@@H](CC(N)=O)C(=O)N1CCC[C@H]1C(=O)N[C@@H](Cc1ccccc1)C(=O)NCC(=O)N[C@@H](C)C(=O)N1CCC[C@H]1C(=O)N[C@@H](CC(C)C)C(=O)N[C@@H](CO)C(=O)N[C@@H](CO)C(=O)N[C@H](C(=O)N[C@@H](CC(N)=O)C(=O)N[C@H](C(=O)NCC(=O)N[C@@H](CO)C(=O)N[C@@H](CC(=O)O)C(=O)N[C@H](C(=O)N[C@@H](Cc1ccc(O)cc1)C(N)=O)[C@@H](C)O)C(C)C)[C@@H](C)O [Example 3] (H-K([γGlu-γGlu-C20 diacid])CNTATCATQRLADFLRHSSNPFGAPLSSTNVGSDTY-NH2; disulfide 2-7) | Ratio hCT/hAmylin funct. ([1]; Table 6a, human functional selectivity (hCTR EC50 / hAmylin-R EC50), at least 5): 6.7
4 |  |  | 1.0 | 1.2 | CC[C@H](C)[C@H](NC(=O)[C@H](C)NC(=O)CNC(=O)[C@H](Cc1ccccc1)NC(=O)[C@H](CC(N)=O)NC(=O)[C@@H]1CCCN1C(=O)[C@H](CO)NC(=O)[C@H](CO)NC(=O)[C@H](Cc1c[nH]cn1)NC(=O)[C@H](CCCNC(=N)N)NC(=O)[C@H](CC(C)C)NC(=O)[C@H](Cc1ccccc1)NC(=O)[C@H](CC(=O)O)NC(=O)[C@H](C)NC(=O)[C@H](CC(C)C)NC(=O)[C@H](CCCNC(=N)N)NC(=O)[C@H](CCC(N)=O)NC(=O)[C@@H](NC(=O)[C@H](C)NC(=O)[C@@H]1CSSC[C@H](NC(=O)[C@H](CCCCN)NC(=O)CC[C@H](NC(=O)CCCCCCCCCCCCCCCCCCC(=O)O)C(=O)O)C(=O)N[C@@H](CC(N)=O)C(=O)N[C@@H]([C@@H](C)O)C(=O)N[C@@H](C)C(=O)N[C@@H]([C@@H](C)O)C(=O)N1)[C@@H](C)O)C(=O)N1CCC[C@H]1C(=O)N[C@@H](CO)C(=O)N[C@@H](CO)C(=O)N[C@H](C(=O)N[C@@H](CC(N)=O)C(=O)N[C@H](C(=O)NCC(=O)N[C@@H](CO)C(=O)N[C@@H](CC(N)=O)C(=O)N[C@H](C(=O)N1CCC[C@H]1C(N)=O)[C@@H](C)O)C(C)C)[C@@H](C)O [Example 10] ({C20 diacid-γGlu}-KCNTATCATQRLADFLRHSSPNFGAIPSSTNVGSNTP-NH2; disulfide 2-7) | 
5 |  |  | 4.8 | 9.2 | CC[C@H](C)[C@H](NC(=O)[C@H](C)NC(=O)CNC(=O)[C@H](Cc1ccccc1)NC(=O)[C@H](CC(N)=O)NC(=O)[C@@H]1CCCN1C(=O)[C@H](CO)NC(=O)[C@H](CO)NC(=O)[C@H](Cc1c[nH]cn1)NC(=O)[C@H](CCCNC(=N)N)NC(=O)[C@H](CC(C)C)NC(=O)[C@H](Cc1ccccc1)NC(=O)[C@H](CCC(=O)O)NC(=O)[C@H](C)NC(=O)[C@H](CC(C)C)NC(=O)[C@H](CCCNC(=N)N)NC(=O)[C@H](CCC(N)=O)NC(=O)[C@@H](NC(=O)[C@H](C)NC(=O)[C@@H]1CSSC[C@H](NC(=O)[C@H](CCCCN)NC(=O)CC[C@H](NC(=O)CCCCCCCCCCCCCCCCCCC(=O)O)C(=O)O)C(=O)N[C@@H](CC(N)=O)C(=O)N[C@@H]([C@@H](C)O)C(=O)N[C@@H](C)C(=O)N[C@@H]([C@@H](C)O)C(=O)N1)[C@@H](C)O)C(=O)N1CCC[C@H]1C(=O)N[C@@H](CO)C(=O)N[C@@H](CO)C(=O)N[C@H](C(=O)N[C@@H](CC(N)=O)C(=O)N[C@H](C(=O)NCC(=O)N[C@@H](CO)C(=O)N[C@@H](Cc1c[nH]cn1)C(=O)N[C@H](C(=O)N[C@@H](Cc1ccc(O)cc1)C(N)=O)[C@@H](C)O)C(C)C)[C@@H](C)O [Example 18] ({C20 diacid-γGlu}-KCNTATCATQRLAEFLRHSSPNFGAIPSSTNVGSHTY-NH2; disulfide 2-7) | 
6 |  |  | 2.2 | 3.9 | CC[C@H](C)[C@H](NC(=O)[C@H](C)NC(=O)CNC(=O)[C@H](Cc1ccccc1)NC(=O)[C@H](CC(N)=O)NC(=O)[C@@H]1CCCN1C(=O)[C@H](CO)NC(=O)[C@H](CO)NC(=O)[C@H](Cc1c[nH]cn1)NC(=O)[C@H](CCCNC(=N)N)NC(=O)[C@H](CC(C)C)NC(=O)[C@H](Cc1ccccc1)NC(=O)[C@H](CCC(=O)O)NC(=O)[C@H](C)NC(=O)[C@H](CC(C)C)NC(=O)[C@H](CCCNC(=N)N)NC(=O)[C@H](CCC(N)=O)NC(=O)[C@@H](NC(=O)[C@H](C)NC(=O)[C@@H]1CSSC[C@H](NC(=O)[C@H](CCCCN)NC(=O)CC[C@H](NC(=O)CCCCCCCCCCCCCCCCCCC(=O)O)C(=O)O)C(=O)N[C@@H](CC(N)=O)C(=O)N[C@@H]([C@@H](C)O)C(=O)N[C@@H](C)C(=O)N[C@@H]([C@@H](C)O)C(=O)N1)[C@@H](C)O)C(=O)N[C@@H](CC(C)C)C(=O)N1CCC[C@H]1C(=O)N[C@@H](CO)C(=O)N[C@H](C(=O)N[C@@H](CC(N)=O)C(=O)N[C@H](C(=O)NCC(=O)N[C@@H](CO)C(=O)N[C@@H](CCC(=O)O)C(=O)N[C@H](C(=O)N[C@@H](Cc1ccc(O)cc1)C(N)=O)[C@@H](C)O)C(C)C)[C@@H](C)O [Example 33] ({C20 diacid-γGlu}-KCNTATCATQRLAEFLRHSSPNFGAILPSTNVGSETY-NH2; disulfide 2-7) | Ratio hCT/hAmylin funct. ([1]; hCTR funct. EC50 divided by hAmylin-R funct. EC50): 2.2
